# Laboratory results taken from patent publication US8426429B2, “2-amino-quinazoline derivatives useful as inhibitors of β-secretase (BACE)” (Jansssen Pharmaceutica N.V., priority 2004, dated 2013).
# Target: T1, β-secretase (BACE) (Homo sapiens, UniProt P56817)
# T1 construct: purchased Panvera
# Test: BACE FS1 % Inhibition Assay
# Type: biochemical
# Procedure, shortened: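 Percent inhibition per compound concentration was referenced to vehicle-treated enzyme and no-enzyme wells. Enzyme at a 4 μg/mL working stock plus compound was mixed for 20 min at room temperature before the FS1 substrate (300 μg/mL working stock) was added for a 1 h room-temperature reaction.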
# T1 sequence (P56817 46-501): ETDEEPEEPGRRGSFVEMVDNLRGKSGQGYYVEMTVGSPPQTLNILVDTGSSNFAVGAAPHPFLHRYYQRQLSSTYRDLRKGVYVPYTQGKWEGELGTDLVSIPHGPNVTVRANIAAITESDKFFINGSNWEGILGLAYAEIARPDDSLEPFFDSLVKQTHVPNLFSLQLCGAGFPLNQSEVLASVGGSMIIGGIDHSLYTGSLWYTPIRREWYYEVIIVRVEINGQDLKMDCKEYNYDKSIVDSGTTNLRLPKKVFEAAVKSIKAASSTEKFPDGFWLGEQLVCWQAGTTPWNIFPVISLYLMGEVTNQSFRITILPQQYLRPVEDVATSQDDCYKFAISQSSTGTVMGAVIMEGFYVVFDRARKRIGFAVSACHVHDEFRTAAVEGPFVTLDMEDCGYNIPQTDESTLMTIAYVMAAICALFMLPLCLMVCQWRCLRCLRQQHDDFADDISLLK
SMILES,% Inhibition (FS) (0.3 μM test compound) [%],% Inhibition (FS) (1 μM test compound) [%],% Inhibition (FS) (3 μM test compound) [%],other results
NC1=Nc2ccc(Oc3ccccc3)cc2CN1C(CC(=O)NC1C2CC3CC(C2)CC1C3)C1CCCCC1 (stereo not drawn) [Compound 314],<30,45,85,
CNC(=O)C1CCC(N(C)C(=O)CCC(C2CCCCC2)N2Cc3cc(Oc4ccccc4)ccc3N=C2N)CC1 (stereo not drawn) [Compound 765],,,,"% Inhibition (FS) (0.3 μM compound, FS1 substrate): <30%; % Inhibition (FS) (1 μM compound, FS1 substrate): 56%; % Inhibition (FS) (3 μM compound, FS1 substrate): 97%"
CCCC(CCC(=O)NC1CCCCC1)N1Cc2cc(Oc3ccccc3)ccc2N=C1N (stereo not drawn) [Compound 129],,,113,% Inhibition (FS) (10 μM test compound): 113%
NC1=Nc2ccc(-c3ccc4ccccc4c3)cc2CN1CCNC(=O)C1CCCC1 [Compound 664],,,,"% Inhibition (FS) (0.3 μM compound, FS1 substrate): <30%; % Inhibition (FS) (1 μM compound, FS1 substrate): <30%; % Inhibition (FS) (3 μM compound, FS1 substrate): <30%"
NC1=Nc2ccc(-c3ccc4ccccc4c3)cc2CN1CCNC(=O)CCC(F)(F)F [Compound 686],,,,"% Inhibition (FS) (0.3 μM compound, FS1 substrate): <30%; % Inhibition (FS) (1 μM compound, FS1 substrate): 73%; % Inhibition (FS) (3 μM compound, FS1 substrate): 80%"
CNC(=O)c1ccccc1Sc1ccc2c(c1)CN(Cc1cccc(C(=O)N(C)C3CCCCC3)c1)C(N)=N2 [Compound 416],<30,<30,−3,
NC1=Nc2ccc(Oc3ccccc3)cc2CN1C(CC(=O)NC1CCCCC1)C1CCCCC1 (stereo not drawn) [Compound 300],<30,<30,77,
CCCCC(CC)C(=O)NCCN1Cc2cc(-c3ccc4ccccc4c3)ccc2N=C1N (stereo not drawn) [Compound 669],,,,"% Inhibition (FS) (0.3 μM compound, FS1 substrate): <30%; % Inhibition (FS) (1 μM compound, FS1 substrate): <30%; % Inhibition (FS) (3 μM compound, FS1 substrate): 32%"
CC(C)C(=O)NCC(C1CCCCC1)N1Cc2cc(Oc3ccccc3)ccc2N=C1N (stereo not drawn) [Compound 301],<30,82,106,
CCCC(CCC(=O)NC1CCCCCC1)N1Cc2cc(Oc3ccccc3)ccc2N=C1N (stereo not drawn) [Compound 128],,,97,% Inhibition (FS) (10 μM test compound): 108%
CC(C)N(C(=O)CC(C1CCCCC1)N1Cc2cc(Oc3ccccc3)ccc2N=C1N)C1CCCCC1 (stereo not drawn) [Compound 200],<30,<30,<30,
CCCCC(CC)CN(CC(CC)CCCC)C(=O)c1cccc(CN2Cc3cc(Oc4ccccc4)ccc3N=C2N)c1 (stereo not drawn) [Compound 198],<30,<30,<30,
CCCC(CCCC(=O)N(C)C1CCCCC1)N1Cc2cc(Oc3ccccc3)ccc2N=C1N (stereo not drawn) [Compound 90],,,106,% Inhibition (FS) (10 μM test compound): 124%
CN(C(=O)c1cccc(CN2Cc3cc(-c4cccc(C(=O)O)c4)ccc3N=C2N)c1)C1CCCCC1 [Compound 163],<30,33,<30,
CN(Cc1cccc(CC(=O)O)c1)C(=O)CCC(C1CCCCC1)N1Cc2cc(Oc3ccccc3)ccc2N=C1N (stereo not drawn) [Compound 778],,,,"% Inhibition (FS) (0.3 μM compound, FS1 substrate): <30%; % Inhibition (FS) (1 μM compound, FS1 substrate): 77%"
COc1ccc2c(c1)C(CC(=O)N(C)C1CCCCC1)CC2N1Cc2cc(Oc3ccccc3)ccc2N=C1N (stereo not drawn) [Compound 146],,,<30,% Inhibition (FS) (10 μM test compound): 39%

SMILES,% Inhibition (FS) (0.3 μM test compound) [%],% Inhibition (FS) (1 μM test compound) [%],% Inhibition (FS) (3 μM test compound) [%],other results
COc1cccc(F)c1-c1ccc2c(c1)CN(CCNC(=O)C1CCOCC1)C(N)=N2 [Compound 699],,,,"% Inhibition (FS) (0.3 μM compound, FS1 substrate): 31%; % Inhibition (FS) (1 μM compound, FS1 substrate): 64%; % Inhibition (FS) (3 μM compound, FS1 substrate): 93%"
CCOC(=O)C1CCC(N(C)C(=O)CCC(C2CCCCC2)N2Cc3cc(Oc4ccccc4)ccc3N=C2N)CC1 (stereo not drawn) [Compound 737],,,,"% Inhibition (FS) (0.3 μM compound, FS1 substrate, 0.3 µM): 22%; % Inhibition (FS) (1 μM compound, FS1 substrate, 1 µM): 34%; % Inhibition (FS) (3 μM compound, FS1 substrate, 3 µM): 97%"
CC(C)C(CC(=O)NC1C2CC3CC(C2)CC1C3)N1Cc2cc(Oc3ccccc3)ccc2N=C1N (stereo not drawn) [Compound 402],<30,53,99,
CN(C(=O)c1cccc(CN2Cc3cc(-c4cccc(-c5ccccc5)c4)ccc3N=C2N)c1)C1CCCCC1 [Compound 171],<30,31,42,
CN1CCCC1CCNC(=O)c1cccc(CN2Cc3cc(Oc4ccccc4)ccc3N=C2N)c1 (stereo not drawn) [Compound 222],<30,<30,<30,
CCc1ccccc1Sc1ccc2c(c1)CN(Cc1cccc(C(=O)N(C)C3CCCCC3)c1)C(N)=N2 [Compound 406],<30,<30,50,
CCCN(CC1CC1)C(=O)c1cccc(CN2Cc3cc(Oc4ccccc4)ccc3N=C2N)c1 [Compound 197],<30,<30,32,
CN(C(=O)c1cccc(CN2Cc3cc(-c4ccc5[nH]ccc5c4)ccc3N=C2N)c1)C1CCCCC1 [Compound 175],<30,<30,37,
NC1=Nc2ccc(-c3ccccc3Cl)cc2CN1CCNC(=O)C1CCC(C(F)(F)F)CC1 (stereo not drawn) [Compound 690],,,,"% Inhibition (FS) (0.3 μM compound, FS1 substrate): <30%; % Inhibition (FS) (1 μM compound, FS1 substrate): <30%; % Inhibition (FS) (3 μM compound, FS1 substrate): 52%"
COC(=O)[C@@H](COCc1ccccc1)N(C)C(=O)CC[C@@H](C1CCCCC1)N1Cc2cc(Oc3ccccc3)ccc2N=C1N [Compound 779],,,,"% Inhibition (FS) (0.3 μM compound, FS1 substrate): 102%; % Inhibition (FS) (1 μM compound, FS1 substrate): 107%; % Inhibition (FS) (3 μM compound, FS1 substrate): 120%"
NC1=Nc2ccc(Oc3ccccc3)cc2CN1Cc1cccc(C(=O)NCCc2ccc(S(N)(=O)=O)cc2)c1 [Compound 188],<30,<30,<30,
COc1ccccc1-c1ccc2c(c1)CN(C(CCC(=O)N(C)C1CCCCC1)C1CCCCC1)C(N)=N2 (stereo not drawn) [Compound 227],86,109,116,
COc1ccccc1Sc1ccc2c(c1)CN(Cc1cccc(C(=O)N(C)C3CCCCC3)c1)C(N)=N2 [Compound 412],<30,<30,49,
CCCC(CNC(=O)C1CCCCC1)N1Cc2cc(Oc3ccccc3)ccc2N=C1N (stereo not drawn) [Compound 601],,,,"% Inhibition (FS) (0.3 μM test compound, 0.3 µM): 105%; % Inhibition (FS) (1 μM test compound, 1 µM): 115%; % Inhibition (FS) (3 μM test compound, 3 µM): 121%"
NC1=Nc2ccc(Oc3ccccc3)cc2CN1CCCNC(=O)C1CCC1 [Compound 144],,,39,% Inhibition (FS) (10 μM test compound): 59%

# Now from value to molecule, other results behind:
% Inhibition (FS) (0.3 μM test compound) [%],% Inhibition (FS) (1 μM test compound) [%],% Inhibition (FS) (3 μM test compound) [%],SMILES,other results
<30,<30,51,NC1=Nc2ccc(Oc3ccccc3)cc2CN1CC1CCN(C(=O)C23CC4CC(CC(C4)C2)C3)CC1 [Compound 527],
<30,<30,<30,Cc1cccc(C)c1Oc1ccc2c(c1)CN(Cc1cccc(C(=O)N(C)C3CCCCC3)c1)C(N)=N2 [Compound 475],
72,94,112,NC1=Nc2ccc(-c3ccccc3Cl)cc2CN1CCNC(=O)C1CCCC1 [Compound 650],
<30,<30,<30,CCCC(=O)NCCN1Cc2cc(-c3ccncc3)ccc2N=C1N [Compound 570],
<30,51,96,NC1=Nc2ccc(-c3ccccc3Cl)cc2CN1CCNC(=O)C12CC3CC(CC(C3)C1)C2 [Compound 651],
<30,<30,<30,CC(=O)c1cccc(-c2ccc3c(c2)CN(CCNC(=O)CC2CCCC2)C(N)=N3)c1 [Compound 582],
<30,<30,59,Cc1cc(C(=O)NCCN2Cc3cc(-c4ccccc4)ccc3N=C2N)c(C)o1 [Compound 586],
<30,<30,<30,CN(C(=O)c1cccc(CN2Cc3cc(OCc4ccccc4-c4ccccc4)ccc3N=C2N)c1)C1CCCCC1 [Compound 513],
<30,42,78,NC1=Nc2ccc(Oc3ccccc3)cc2CN1C(CCCC(=O)N1CCCCC1)CCC(=O)N1CCCCC1 (stereo not drawn) [Compound 452],
<30,<30,33,CN(C(=O)c1cccc(CN2Cc3cc(OC4CCCC4)ccc3N=C2N)c1)C1CCCCC1 [Compound 520],
<30,<30,<30,NC1=Nc2ccc(Oc3ccccc3)cc2CN1C1CCCCN(C(=O)C2CCCCC2)C1 (stereo not drawn) [Compound 551],
<30,<30,<30,CC(=O)c1cccc(-c2ccc3c(c2)CN(CCNC(=O)c2cc(C)oc2C)C(N)=N3)c1 [Compound 588],
<30,<30,<30,CC(C)(C)C(=O)NCCN1Cc2cc(-c3ccncc3)ccc2N=C1N [Compound 573],
<30,<30,37,COc1ccccc1-c1cc2c(cc1F)CN(CCC(=O)NC1C3CC4CC(C3)CC1C4)C(N)=N2 (stereo not drawn) [Compound 620],
45,79,104,CCCCC(CC)C(=O)NCCN1Cc2cc(-c3ccccc3Cl)ccc2N=C1N (stereo not drawn) [Compound 655],
<30,<30,<30,NC1=Nc2ccc(-c3cncnc3)cc2CN1CCNC(=O)C1CCCCC1 [Compound 575],
34,65,95,NC1=Nc2ccc(-c3ccccc3Cl)cc2CN1CCNC(=O)C1CCC1 [Compound 649],
